Source: ChEMBL document CHEMBL6182949 (J Med Chem, 2025)
pIC50: −log10 of the molar value. ≈ marks a conversion by molar mass, not a printed value. Calls of active or inactive are those of the source. The rule behind the calls is not given here.

Columns and labels:
[1] = Oral bioavailability in Sprague-Dawley rat at 10 mg/kg measured up to 24 hrs by LC-MS/MS analysis; assay type: ADME, organism-based; conditions: in vivo
[2] = Half life in cynomolgus monkey at 1 mg/kg, iv measured up to 24 hrs by LC-MS/MS analysis; assay type: ADME, organism-based, Macaca fascicularis; conditions: in vivo
[3] = target: Protein cereblon/Interleukin-1 receptor-associated kinase 4 (Mus musculus) (UniProt Q8C7D2+Q8R4K2); test: In-vivo PROTAC activity at C57BL/6 mouse assessed as reduction in IRAK4 level in spleen at 30 mg/kg, po measured after 24 hrs by Western blot analysis; assay type: functional, organism-based; design: scale not given: the % may be the effect or the level left
Chain of Protein cereblon/Interleukin-1 receptor-associated kinase 4 (Mus musculus) (Q8C7D2 whole entry, looked up): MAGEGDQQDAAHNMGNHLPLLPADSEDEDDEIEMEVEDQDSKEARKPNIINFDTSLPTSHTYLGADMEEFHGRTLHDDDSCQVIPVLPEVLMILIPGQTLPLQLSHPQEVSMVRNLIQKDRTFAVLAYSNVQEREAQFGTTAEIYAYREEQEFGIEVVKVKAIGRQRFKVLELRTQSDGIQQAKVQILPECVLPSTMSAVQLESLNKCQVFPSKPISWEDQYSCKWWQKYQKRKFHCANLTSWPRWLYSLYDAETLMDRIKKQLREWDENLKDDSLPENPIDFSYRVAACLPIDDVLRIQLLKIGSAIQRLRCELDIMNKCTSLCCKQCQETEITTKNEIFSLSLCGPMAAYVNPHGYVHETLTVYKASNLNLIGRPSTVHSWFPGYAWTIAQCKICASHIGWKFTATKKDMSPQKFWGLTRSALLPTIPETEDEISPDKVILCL
Chain of Protein cereblon/Interleukin-1 receptor-associated kinase 4 (Mus musculus) (Q8R4K2 whole entry, looked up): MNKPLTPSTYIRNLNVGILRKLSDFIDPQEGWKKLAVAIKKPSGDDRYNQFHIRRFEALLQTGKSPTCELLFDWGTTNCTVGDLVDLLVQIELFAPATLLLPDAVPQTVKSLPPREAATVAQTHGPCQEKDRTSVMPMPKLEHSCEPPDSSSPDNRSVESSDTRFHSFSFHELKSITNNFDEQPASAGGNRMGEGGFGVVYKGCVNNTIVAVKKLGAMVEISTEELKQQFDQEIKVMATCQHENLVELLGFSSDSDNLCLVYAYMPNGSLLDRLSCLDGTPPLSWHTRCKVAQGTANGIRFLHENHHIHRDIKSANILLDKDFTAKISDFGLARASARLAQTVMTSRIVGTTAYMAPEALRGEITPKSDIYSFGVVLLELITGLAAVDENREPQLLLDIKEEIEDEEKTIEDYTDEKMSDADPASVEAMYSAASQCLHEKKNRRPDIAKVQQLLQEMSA

[4] = Clearance in cynomolgus monkey at 1 mg/kg, iv measured up to 24 hrs by LC-MS/MS analysis; assay type: ADME, organism-based, Macaca fascicularis; conditions: in vivo
[5] = target: T1, Protein cereblon/Interleukin-1 receptor-associated kinase 4 (Homo sapiens, UniProt Q9NWZ3+Q96SW2); test: PROTAC activity at CRBN/IRAK4 in human THP-1 cells assessed as induction of IRAK4 degradation incubated for 24 hrs by HiBiT lytic reagent based analysis; assay type: cell-based
T1 sequence (Q9NWZ3 whole entry): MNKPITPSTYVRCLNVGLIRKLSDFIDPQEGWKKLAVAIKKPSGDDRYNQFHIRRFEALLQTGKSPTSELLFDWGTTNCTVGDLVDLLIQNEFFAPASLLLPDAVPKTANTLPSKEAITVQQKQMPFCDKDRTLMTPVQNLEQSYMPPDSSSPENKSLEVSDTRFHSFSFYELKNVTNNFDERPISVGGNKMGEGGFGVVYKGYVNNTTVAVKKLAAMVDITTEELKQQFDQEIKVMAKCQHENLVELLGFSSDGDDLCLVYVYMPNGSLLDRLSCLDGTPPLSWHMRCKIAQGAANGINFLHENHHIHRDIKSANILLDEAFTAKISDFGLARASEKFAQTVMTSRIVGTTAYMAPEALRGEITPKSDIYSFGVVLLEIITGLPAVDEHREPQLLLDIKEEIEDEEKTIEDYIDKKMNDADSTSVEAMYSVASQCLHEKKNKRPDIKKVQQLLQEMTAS
T1 sequence (Q96SW2 whole entry): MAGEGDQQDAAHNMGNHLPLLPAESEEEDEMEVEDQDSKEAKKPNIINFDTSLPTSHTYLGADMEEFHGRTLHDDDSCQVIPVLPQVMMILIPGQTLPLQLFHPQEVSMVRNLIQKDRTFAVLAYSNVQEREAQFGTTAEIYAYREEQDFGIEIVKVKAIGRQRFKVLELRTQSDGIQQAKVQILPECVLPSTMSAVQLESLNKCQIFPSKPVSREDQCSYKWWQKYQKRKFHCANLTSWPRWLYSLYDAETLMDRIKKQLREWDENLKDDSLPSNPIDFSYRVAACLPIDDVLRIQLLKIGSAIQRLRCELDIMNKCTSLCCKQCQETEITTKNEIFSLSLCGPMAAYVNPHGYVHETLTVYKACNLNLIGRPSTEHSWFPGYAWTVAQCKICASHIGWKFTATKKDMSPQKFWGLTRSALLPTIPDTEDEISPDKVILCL

[6] = system: Mus musculus; test: Anti-arthritic activity against collagen-induced arthritis DBA/1 mouse model assessed as reduction in pathological score at 100 mg/kg, po administered for 14 days; assay type: functional, organism-based; conditions: time 14.0 day
[7] = target: T2, CYP1A2 (Homo sapiens, UniProt P05177); test: Inhibition of CYP1A2 in human liver microsome using phenacetin as substrate at 10 uM preincubated for 5 mins followed by NADPH addition and measured after 20 mins by LC-MS/MS analysis relative to control; assay type: ADME; conditions: human liver microsomes, probe phenacetin, time 25 min
T2 sequence (P05177 whole entry): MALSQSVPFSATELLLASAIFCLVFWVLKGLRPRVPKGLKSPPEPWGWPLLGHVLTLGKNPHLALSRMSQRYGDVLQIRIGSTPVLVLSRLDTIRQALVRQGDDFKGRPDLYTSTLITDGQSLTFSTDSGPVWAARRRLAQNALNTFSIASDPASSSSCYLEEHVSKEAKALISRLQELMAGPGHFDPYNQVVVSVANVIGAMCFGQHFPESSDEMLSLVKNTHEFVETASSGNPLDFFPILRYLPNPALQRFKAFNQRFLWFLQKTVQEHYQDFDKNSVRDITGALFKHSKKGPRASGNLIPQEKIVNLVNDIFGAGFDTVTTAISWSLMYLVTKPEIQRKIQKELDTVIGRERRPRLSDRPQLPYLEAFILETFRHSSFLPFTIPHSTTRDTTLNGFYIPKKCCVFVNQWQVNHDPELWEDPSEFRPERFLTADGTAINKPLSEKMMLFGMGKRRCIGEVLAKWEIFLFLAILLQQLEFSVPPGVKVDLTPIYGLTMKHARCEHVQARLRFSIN

[8] = AUClast in Sprague-Dawley rat at 2 mg/kg, iv measured up to 24 hrs by LC-MS/MS analysis; assay type: ADME, organism-based; conditions: in vivo
[9] = Metabolic stability human hepatocyte assessed as half life at 1 uM measured up to 120 mins by LC-MS/MS analysis; assay type: ADME, cell-based; conditions: hepatocytes
[10] = Kinetic solubility of compound in FaSSIF at pH 6.5 incubated for 2 hr by LC-MS analysis; assay type: physicochemical; conditions: read-out: Kinetic_solubility
[11] = system: Mus musculus; test: Anti-arthritic activity against collagen-induced arthritis DBA/1 mouse model assessed as improvement in delta paw volume at 100 mg/kg, po administered for 14 days […]; assay type: functional, organism-based; conditions: time 14.0 day
[12] = Clearance in male C57BL/6 mouse at 2 mg/kg, iv measured up to 24 hrs by LC-MS/MS analysis; assay type: ADME, organism-based; conditions: in vivo
[13] = Oral bioavailability in Beagle dog at 10 mg/kg measured up to 24 hrs by LC-MS/MS analysis; assay type: ADME, organism-based, Canis lupus familiaris; conditions: in vivo
[14] = Kinetic solubility of compound in FeSSIF at pH 5 incubated for 2 hr by LC-MS analysis; assay type: physicochemical; conditions: read-out: Kinetic_solubility
[15] = Efflux ratio of permeability across basolateral to apical over apical to basolateral side in human Caco-2 cells measured up to 120 mins by LC-MS/MS analysis; assay type: ADME, cell-based
[16] = target: T1, Protein cereblon/Interleukin-1 receptor-associated kinase 4; test: PROTAC activity at CRBN/IRAK4 in human PBMC cells assessed as induction of IRAK4 degradation incubated for 24 hrs by HiBiT lytic reagent based analysis; assay type: cell-based
[17] = target: CYP2D6 (Homo sapiens, UniProt P10635); test: Inhibition of CYP2D6 in human liver microsome using dextromethorphan as substrate at 10 uM preincubated for 5 mins followed by NADPH addition and measured after 10 mins by LC-MS/MS analysis relative to control; assay type: ADME; conditions: human liver microsomes, probe dextromethorphan, time 15 min
Chain of CYP2D6 (P10635 whole entry): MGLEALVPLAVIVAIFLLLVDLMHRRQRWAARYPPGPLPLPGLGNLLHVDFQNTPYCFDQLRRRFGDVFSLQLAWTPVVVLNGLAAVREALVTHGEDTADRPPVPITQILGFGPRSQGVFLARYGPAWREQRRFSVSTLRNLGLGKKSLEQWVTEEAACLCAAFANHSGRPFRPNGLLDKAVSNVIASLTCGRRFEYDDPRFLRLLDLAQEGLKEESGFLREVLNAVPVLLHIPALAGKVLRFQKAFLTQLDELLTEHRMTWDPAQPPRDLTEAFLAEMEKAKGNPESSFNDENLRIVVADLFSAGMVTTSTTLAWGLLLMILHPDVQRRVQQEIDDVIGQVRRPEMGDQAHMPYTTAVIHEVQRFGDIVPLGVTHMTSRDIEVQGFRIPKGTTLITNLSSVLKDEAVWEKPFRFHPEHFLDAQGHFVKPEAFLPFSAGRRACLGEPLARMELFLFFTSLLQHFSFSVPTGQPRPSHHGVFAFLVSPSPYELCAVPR

[18] = system: Mus musculus; test: Anti-arthritic activity against collagen-induced arthritis DBA/1 mouse model assessed as improvement in delta paw volume at 30 mg/kg, po administered for 14 days […]; assay type: functional, organism-based; conditions: time 14.0 day
[19] = Inhibition of LPS-stimulated IL-6 release in human PBMC cells; assay type: functional, cell-based
[20] = AUClast in Beagle dog at 10 mg/kg, po measured up to 24 hrs by LC-MS/MS analysis; assay type: ADME, organism-based, Canis lupus familiaris; conditions: in vivo
[21] = system: Mus musculus; test: Anti-psoriasis effect in IMQ-induced C57BL/6 mouse assessed as reduction in ear thickness at 30 mg/kg administered topically twice daily for 6 days and measured after 24 hrs; assay type: functional, organism-based; conditions: time 7.0 day
[22] = Cmax in cynomolgus monkey at 1 mg/kg, iv measured up to 24 hrs by LC-MS/MS analysis; assay type: ADME, organism-based, Macaca fascicularis; conditions: in vivo
[23] = AUClast in cynomolgus monkey at 20 mg/kg, po measured up to 24 hrs by LC-MS/MS analysis; assay type: ADME, organism-based, Macaca fascicularis; conditions: in vivo
[24] = target: CYP3A4 (Homo sapiens, UniProt P08684); test: Inhibition of CYP3A4 in human liver microsome using midazolam as substrate at 10 uM preincubated for 5 mins followed by NADPH addition and measured after 10 mins by LC-MS/MS analysis relative to control; assay type: ADME; conditions: human liver microsomes, probe midazolam, time 15 min
Chain of CYP3A4 (P08684 whole entry): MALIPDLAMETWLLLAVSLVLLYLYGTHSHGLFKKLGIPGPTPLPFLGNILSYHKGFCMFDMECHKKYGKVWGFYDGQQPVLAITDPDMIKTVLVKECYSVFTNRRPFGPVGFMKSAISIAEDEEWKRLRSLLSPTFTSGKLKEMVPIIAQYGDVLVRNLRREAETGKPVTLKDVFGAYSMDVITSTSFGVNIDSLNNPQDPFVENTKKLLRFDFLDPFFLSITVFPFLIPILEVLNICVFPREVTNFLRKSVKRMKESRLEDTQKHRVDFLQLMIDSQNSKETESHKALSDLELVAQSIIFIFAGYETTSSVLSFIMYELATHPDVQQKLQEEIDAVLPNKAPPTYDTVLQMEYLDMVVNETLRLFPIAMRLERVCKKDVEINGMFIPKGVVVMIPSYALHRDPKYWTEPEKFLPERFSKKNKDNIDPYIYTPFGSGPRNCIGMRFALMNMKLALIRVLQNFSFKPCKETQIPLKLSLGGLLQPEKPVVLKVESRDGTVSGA

[25] = Half life in Beagle dog at 2 mg/kg, iv measured up to 24 hrs by LC-MS/MS analysis; assay type: ADME, organism-based, Canis lupus familiaris; conditions: in vivo
[26] = target: Cereblon/Ikaros (Homo sapiens) (UniProt Q96SW2+Q13422); test: PROTAC activity at CRBN/IKZF1 in human PBMC cells assessed as induction of SALL4 degradation at 1 uM by Western blot analysis; assay type: cell-based
[27] = AUClast in Sprague-Dawley rat at 10 mg/kg, po measured up to 24 hrs by LC-MS/MS analysis; assay type: ADME, organism-based; conditions: in vivo
[28] = target: hERG (KCNH2) (Homo sapiens, UniProt Q12809); test: Inhibition of hERG expressed in HEK293 cells at 3 uM by manual patch clamp assay relative to control; assay type: toxicity, cell-based; conditions: HEK293 cells expressing hERG
Chain of hERG (KCNH2) (Q12809 whole entry): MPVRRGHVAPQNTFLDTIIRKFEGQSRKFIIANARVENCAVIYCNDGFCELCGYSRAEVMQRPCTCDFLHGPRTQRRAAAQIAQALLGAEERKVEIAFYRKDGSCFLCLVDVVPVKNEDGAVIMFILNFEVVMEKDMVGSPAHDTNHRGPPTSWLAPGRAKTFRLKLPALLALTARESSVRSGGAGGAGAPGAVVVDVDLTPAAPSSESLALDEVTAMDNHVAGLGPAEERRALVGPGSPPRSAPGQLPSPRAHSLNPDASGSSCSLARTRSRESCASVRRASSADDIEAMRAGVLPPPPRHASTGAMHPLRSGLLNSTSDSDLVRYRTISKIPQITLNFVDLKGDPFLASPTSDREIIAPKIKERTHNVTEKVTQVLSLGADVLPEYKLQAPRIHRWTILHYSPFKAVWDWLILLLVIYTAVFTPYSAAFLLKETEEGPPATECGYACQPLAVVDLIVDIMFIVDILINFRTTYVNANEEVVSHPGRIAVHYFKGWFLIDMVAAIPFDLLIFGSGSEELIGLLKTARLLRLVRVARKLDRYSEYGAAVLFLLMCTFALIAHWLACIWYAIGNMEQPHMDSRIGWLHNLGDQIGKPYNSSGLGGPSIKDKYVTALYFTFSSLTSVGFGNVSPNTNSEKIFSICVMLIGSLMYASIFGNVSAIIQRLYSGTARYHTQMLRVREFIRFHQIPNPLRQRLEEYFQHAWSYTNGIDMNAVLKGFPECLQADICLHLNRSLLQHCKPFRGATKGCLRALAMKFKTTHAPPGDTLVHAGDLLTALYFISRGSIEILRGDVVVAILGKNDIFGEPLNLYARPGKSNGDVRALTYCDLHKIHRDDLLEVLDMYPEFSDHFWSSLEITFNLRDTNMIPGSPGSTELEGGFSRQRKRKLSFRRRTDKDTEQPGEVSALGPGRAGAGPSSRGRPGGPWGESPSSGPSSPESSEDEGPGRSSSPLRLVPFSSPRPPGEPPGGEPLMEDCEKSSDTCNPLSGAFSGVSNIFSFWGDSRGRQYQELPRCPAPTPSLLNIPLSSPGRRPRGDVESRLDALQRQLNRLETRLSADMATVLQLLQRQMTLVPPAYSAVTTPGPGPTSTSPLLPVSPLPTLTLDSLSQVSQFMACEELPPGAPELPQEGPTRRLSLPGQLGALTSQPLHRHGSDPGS

[29] = Oral bioavailability in male C57BL/6 mouse at 10 mg/kg measured up to 24 hrs by LC-MS/MS analysis; assay type: ADME, organism-based; conditions: in vivo
[30] = AUClast in male C57BL/6 mouse at 10 mg/kg, po measured up to 24 hrs by LC-MS/MS analysis; assay type: ADME, organism-based; conditions: in vivo
[31] = Volume of distribution at steady state in Sprague-Dawley rat at 2 mg/kg, iv measured up to 24 hrs by LC-MS/MS analysis; assay type: ADME, organism-based; conditions: in vivo, read-out: Vdss

Work on `Cn1c(=O)n(C2CCC(=O)NC2=O)c2cccc(C#CCO[C@H]3CC[C@H](CN4CCC5(CC4)Cc4cc(NC(=O)c6coc7cccnc67)c(N6CCC(CO)CC6)cc4O5)CC3)c21` (stereo partly specified) yielded an F [1] of 18%, a half-life [2] of 8.67 h and an Activity [3] of over 80%. For the same molecule, the clearance [4] was 9.2 mL/min/kg, the DC50 [5] was 4.01 nM and the Activity [6] was “Active”. The inhibition at 20 min, 10 µM [7] was 8.32%, the AUClast [8] was 25.89 ng·h/mL and the half-life at 1 µM [9] was 2.5 h. For the same molecule, the solubility kinetic at 2 h [10] was 13.3 µg/mL (≈ 15.3 µM), the Activity [11] was “Active” and the clearance [12] was 3.13 mL/min/kg. It also gave a bioavailability [13] of 39%, a solubility kinetic at 2 h [14] of 7.78 µg/mL (≈ 8.94 µM) and an efflux ratio at 2 h [15] of 2.22. For the same molecule, the DC50 [16] was 0.43 nM, the inhibition at 10 min, 10 µM [17] was 13.8% and the Activity [18] was “Active”. The pIC50 [19] was 7.78, the AUC(0-t) at 24 h [20] was 6990 ng·h/mL and the Activity [21] was “Active”. The Cmax [22] was 672 ng/mL, the AUC(0-t) at 24 h [23] was 4000 ng·h/mL and the inhibition at 10 min, 10 µM [24] was 19.1%. The t1/2 [25] was 8.1 h, the Activity [26] was “inactive” and the AUClast [27] was 7093 ng·h/mL. It also gave an inhibition at 3 µM [28] of 53%, a bioavailability [29] of 45% and an AUC(0-t) at 24 h [30] of 23400 ng·h/mL. For the same molecule, the Vd [31] was 2.66 L/kg.
